Common to all, as to assay: NCI tumour cell line growth inhibition, 48 h
Assay [1] concerns HOP-18 NSCLC.
Assay [2] relates to KM20L2 colon.
Assay [3] deals with RXF-631 renal.
Assay [4] relates to XF 498 CNS.
Assay [5] concerns BT-549 breast.
Assay [6] concerns MCF7 breast.
Assay [7] has as its system MDA-N.
Assay [8] has as its system T-47D breast.
In assay [9] the test system is NCI/ADR-RES ovarian.
The subject of assay [10] is P388/ADR leukemia.
The subject of assay [11] is SN12K1 renal.

Our source for the TGI and GI50 values is PubChem BioAssay (NCI).

Values joined by “and” are separate entries in the source; they are usually repeats but may differ in a detail not shown here. Equal entries are not always repeated.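 Test compounds were applied to cells in 96-well plates for 48 hours at 5 doses. Abbreviation: GI50, concentration required for 50% inhibition of growth. The concentration for full growth arrest is given as TGI.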

Regarding `COc1ccccc1/C=C/C(=O)c1sc(-c2cccnc2)nc1C`, the TGI in [1] and in assay [2] was over 100 µM throughout.

As for `CCN1C(C)=NC2C(=O)c3ccccc3C(=O)C21` (stereo unspecified), the TGI in [2] is 68.2 µM; in assay [3], over 100 µM; in assay [4], over 100 µM.

For `COC(=O)C1=CC(O)CCC1c1ccc(OC)cc1` (stereo unspecified), the TGI in [1] and in assay [2] was over 100 µM each time.

With `C=C(C)C1CC=C(C(=O)O)CC1` (stereo unspecified), the figures for the TGI in assay [2] and in assay [3] were over 5000 µM and 1620 µM, respectively.

On to `COc1ccc2cc(C(=O)c3ccccc3C(=O)O)ccc2c1`, for which the TGI in [1] and in assay [2] was over 100 µM each time.

As to `O=C(O)/C(Cl)=C(\Cl)Nc1cccc(C(F)(F)F)c1`, the TGI in assay [1], in [2] and in assay [4] was over 100 µM in each case.

With `CC[O-].CC[O-].[O-]c1ccccc1C=Nc1ccccc1.[O-]c1ccccc1C=Nc1ccccc1.[Ti+4]`, the GI50 was over 100 µM in [1], 23.7 µM in assay [2], over 100 µM in [3] and over 100 µM in assay [4]. Moreover, the TGI in [1], in assay [2], in assay [3] and in [4] was over 100 µM each time.

Turning to `C[C@]12CCC[C@H](OC=O)C1(O)C[C@H](C(=O)O)CC2` (stereo partly specified), the TGI is over 100 µM in assay [1], 35.2 µM in assay [2], over 100 µM in [3] and over 100 µM in assay [4].

As for `N=c1nc(N)c2cc3c(N)nc(=N)c3cc12`, the TGI in assay [5] was 51 µM; in assay [1], 41.5 µM; in assay [2] it was over 100 µM; in [6], over 100 µM; in assay [7] it was 4.71 µM; in assay [3] it was 53.5 µM. This compound also yielded a TGI in assay [8] of 47.8 µM.

For `CCc1ccccc1NC(=O)/C(CC(=O)c1c(C)n([O-])c2ccccc2[n+]1=O)=N\NS(=O)(=O)c1ccc(C)cc1`, the TGI in assay [2] and in assay [3] was over 100 µM in each case.

`C/C(CC(=O)CCCC(=O)Nc1ccc(Cl)cc1Cl)=N/NC(=O)CC#N`: the TGI in assay [1], in assay [2], in assay [3] and in [4] was over 100 µM throughout.

Consider `CCCCCCCC[N+](C)(C)Cc1ccc(C[N+](C)(C)CCCCCCCC)cc1`, for which the TGI in assay [1], in assay [2] and in assay [3] was over 100 µM throughout.

For the compound `Cc1cc(N(CCC#N)CCC#N)ccc1/C=C1/CN(N2C(=O)/C(=C/c3ccc(N(CCC#N)CCC#N)cc3C)N=C2c2ccccc2)C(c2ccccc2)=N1`, the TGI in assay [1], in assay [2] and in assay [4] was over 100 µM throughout.

In the case of `CN1CCC23c4c5ccc(O)c4OC2C(=NN=C2CCC4(O)C6Cc7ccc(O)c8c7C4(CCN6C)C2O8)CCC3(O)C1C5` (stereo unspecified), the TGI in assay [1], in assay [2], in [3] and in assay [4] was over 100 µM throughout.

In the case of `Cc1nc(NC(=S)NC(=O)c2ccc(Cl)c(Cl)c2)sc1C(=O)/C=C/c1ccccc1[N+](=O)[O-]`, the TGI stood at 41.7 µM in assay [1], 35.9 µM in assay [2], 56 µM in assay [3] and 35.9 µM in assay [4].

As for `O=C(O)C1C2C=CC(O2)C1C(=O)Nc1ccccc1` (stereo unspecified), the TGI in assay [5], in assay [6], in [7], in assay [9] and in assay [8] was over 100 µM throughout.

Regarding `CSc1ccc(-c2cn3ccsc3n2)c(O)c1`, the TGI in assay [1], in assay [2], in [3] and in assay [4] was over 100 µM each time.

For the compound `O=C(O)C(=O)Cc1ccc2c(c1)OCO2`, the TGI in [5], in [6], in assay [7], in assay [9] and in assay [8] was over 100 µM in each case.

`CN1C(=O)n2c(nc3ccccc32)C(N=[N+]=[N-])(N=[N+]=[N-])C1=O` (stereo unspecified): the TGI in assay [1], in assay [2], in assay [3] and in assay [4] was over 100 µM in each case.

Take `C=C(C)C(=O)NC(N)=NC#N`: the GI50 in [5] is 67.9 µM; in assay [1], 115 µM; in [6] it was 109 µM; in [7], 96.8 µM; in assay [9] it was 125 µM; in assay [8] it was 57.5 µM. The GI50 in assay [4] is 126 µM. The TGI was 28.4 µM and 192 µM in assay [5]; > 57.4 µM and 240 µM in assay [1]; 232 µM in assay [2]; 248 µM in [6]; 216 µM in [7]; > 83.8 µM and 267 µM in assay [9]. The TGI in [10] is 27.7 µM; in assay [11] it was over 56.4 µM; in assay [8], 56.3 µM and 206 µM; in assay [4] it was > 96.6 µM and 303 µM.

Regarding `CC(C#N)c1cn(S(=O)(=O)c2ccccc2)c2ccccc12` (stereo unspecified), the TGI in [2] and in assay [4] was over 100 µM in each case.

With `COc1cc(C(=O)C/C(CCC(=O)Nc2ccccc2[N+](=O)[O-])=N\NC(=O)C(N)=O)ccc1O`, the TGI in [1], in assay [2] and in assay [3] was over 100 µM each time.

As for `N=c1ccn2c(n1)OC1C(OP(=O)(O)O)C(CO)OC12` (stereo unspecified), the TGI in assay [5], in assay [6], in assay [7], in assay [9] and in assay [8] was over 100 µM in each case.

For the compound `CCC[CH2][Sn]1([CH2]CCC)[O]C(c2ccccn2)S(=O)(=O)[O]1` (stereo unspecified), the values for the GI50 in [2], in assay [3] and in assay [4] were 6.65 µM, 1.3 µM and 2.08 µM, respectively. Besides, the TGI in assay [2] is 20.2 µM; in [3] it was 2.64 µM; in assay [4], 3.55 µM.

Regarding `Cc1cc(N(CCOS(C)(=O)=O)CCOS(C)(=O)=O)ccc1C=Nc1ccc(-c2csc(-c3ccccc3)n2)c(Cl)c1`, the TGI in assay [5] is 73.6 µM; in assay [6], over 58.9 µM; in assay [7] it was 23.1 µM; in assay [9], 71.5 µM; in assay [8] it was over 85.2 µM.

In the case of `CC1(C)CC23C(=O)N(c4ccccc4)C(=Nc4ccccc4)NC2=CC(C#N)=C(C#N)C3O1` (stereo unspecified), the TGI in assay [2], in assay [3] and in assay [4] was over 100 µM in each case.

Regarding `CC1=CC2=C(OCO1)C(=O)c1ccccc1C2=O`, the TGI in assay [1] was 27.1 µM; in assay [2] it was 46.6 µM; in [7] it was 1.48 µM; in [9] it was 9.94 µM; in [8] it was 7.47 µM.

Take `COC1=CC(=O)c2ccc(C(C)C)cc2C1(C)C1=NC(C)(C)CO1` (stereo unspecified): the TGI in assay [1], in assay [2] and in [4] was over 100 µM in each case.

In the case of `[N-]=[N+]=NC1(N=[N+]=[N-])C(=O)NN=C(c2ccccc2)C1=O` (stereo unspecified), the TGI in assay [5] is over 100 µM; in assay [6], over 100 µM; in [7] it was 61.3 µM; in assay [9], over 100 µM; in assay [8], 94.3 µM.

On to `OCCN1CCN(CCO)Cc2ccccc2OCCOc2ccccc2C1`, for which the TGI in assay [2] and in [3] was over 100 µM in each case.

Take `COc1ccc2[nH]c3c4c(c5cc(C(C)(C)C)ccc5c3c2c1)C(=O)N(c1ccccc1)C4=O`: the TGI in assay [1] and in assay [2] was over 100 µM in each case.

On to `O=c1[nH]cnc2c(C3OC(CO)C(O)C3O)[nH]nc12` (stereo unspecified), for which the TGI in assay [5], in assay [6], in assay [7], in [9] and in assay [8] was over 100 µM throughout.

As for `CC1(C)SC2C(C(=O)O)N=C(Cc3ccccc3)N2C1C(=O)O` (stereo unspecified), the TGI in assay [5] is over 100 µM; in assay [6] it was over 100 µM; in assay [7] it was over 100 µM; in assay [9] it was over 100 µM; in [8], 73.7 µM.

In the case of `CON(C)C(=O)C(Cc1ccccc1)NC(=O)OC(C)(C)C` (stereo unspecified), the TGI in assay [5], in assay [6], in assay [7], in assay [9] and in assay [8] was over 100 µM each time.

For the compound `CC(=O)CC(=O)N(CCN(C(=O)CC(C)=O)c1ccccc1)c1ccccc1`, the TGI in assay [1], in [2] and in assay [4] was over 100 µM in each case.

In the case of `C[C@]12CCC3c4ccc(OC(=O)c5ccccc5)cc4CC[C@H]3C1CC[C@@H]2OC(=O)C12OC1CCC2=O` (stereo partly specified), the TGI in [1] amounted to 10.7 µM; in [2], 11.9 µM; in assay [4], 11.1 µM.

For the compound `C/C(=N\O)c1sc(-n2nc(-c3ccccc3)cc2-c2ccccc2)nc1C`, the figures for the TGI in assay [2] and in [3] were 16.1 µM and over 31.6 µM, respectively.

In turn, `CC1(C)CCC(=O)c2c(O)ccc(O)c21` registered a TGI in [2] of over 100 µM.

In turn, `Cc1cc(C)c(C(=O)O)c(N)c1O` registered a TGI in [2] of over 100 µM.

Consider `O=C1c2ccccc2C(=O)N1/N=C\c1ccc(Br)cc1`, for which the TGI in [1] was over 10 µM; in assay [2] it was over 100 µM; in assay [3], over 100 µM; in [4], over 100 µM. Also, the GI50 in assay [2], in assay [3] and in assay [4] was over 100 µM in each case.

As for `CCCC(OCC)(OCC)OCC`, the TGI in assay [1], in assay [2], in assay [3] and in [4] was over 100 µM in each case.

In the case of `CC[C@H](C)c1occ2c(O)c(C(=O)O)c(=O)cc-2c1C`, the TGI in assay [5] was 64.6 µM; in assay [6], over 100 µM; in assay [7] it was over 100 µM; in assay [9], 50.4 µM; in assay [8], 56.4 µM.

As for `O=C(OC(C(=O)O)C(OC(=O)c1ccccc1)C(=O)O)c1ccccc1` (stereo unspecified) (tested in a mixture with another compound), the TGI in assay [5] was 27 µM; in assay [1] it was 9.71 µM and 84.2 µM; in assay [2], > 100 µM and 88.7 µM; in assay [6], over 100 µM; in [7], 43 µM; in [9], over 100 µM. The compound also yielded a TGI in assay [8] of over 100 µM.

For the compound `CCOC(=O)C12CCCC1(O)N(NC(=O)c1cccc(Cl)c1)C(C)=C2C(=O)OC` (stereo unspecified), the TGI in assay [2], in assay [3] and in assay [4] was over 100 µM in each case.

Take `CSc1nc(NC2OCC(OC(C)=O)C(OC(C)=O)C2OC(C)=O)c(N=CC=Nc2c(NC3OCC(OC(C)=O)C(OC(C)=O)C3OC(C)=O)nc(SC)n(C)c2=O)c(=O)n1C` (stereo unspecified): the TGI in assay [1] and in assay [2] was over 100 µM in each case.

In the case of `CCCCCCCCCOC(=S)NC`, the TGI came to 44.2 µM in [1], 32.5 µM in [2], 49.5 µM in [3] and 35.3 µM in assay [4].
